Source: patent publication US20150111864A1, “CRYSTALLINE FORM OF A BETA-LACTAMASE INHIBITOR” (Cubist Pharmaceuticals, Inc., priority 2013, published 2015)

Assays:
[1] = tested on: Eco.2711 (KPC, clinical); assay: Standard BLI Potentiation MIC Assay in Combination with Ceftolozane; assay type: cell-based; conditions: Escherichia coli, read-out: MIC of Ceftolozane, No BLI
Method: (§1) The experimental protocol was performed according to Clinical and Laboratory Standards Institute (CLSI) guidelines with modifications as described below (CLSI guidelines can be derived from the CLSI document M07-A9 published in January 2012: “Methods for Dilution Antimicrobial Susceptibility Tests for Bacteria That Grow Aerobically; Approved Standard-Ninth Edition”).
(§2) Frozen glycerol stocks of laboratory engineered, isogenic E. coli strains, which contain cloned β-lactamase expressing plasmids were used to streak for isolated colonies on rich, selective LB agar supplemented with 25 μg/mL tetracycline to maintain the plasmid. All strains were incubated at 37° C. for 18-24 hrs.
(§3) On the day of testing, primary cultures were started by scraping off 5-10 colonies from the TSAB plates containing clinical strains or the tetracycline supplemented LB plates containing engineered strains. The clinical strain material was suspended in ˜5 mL of cation adjusted Mueller Hinton Broth (CAMHB) in 14 mL culture tubes. The engineered strain material was suspended in CAMHB (supplemented with 25 μg/mL tetracycline) in 14 mL culture tubes. All strains were incubated at 37° C. with aeration (200 rpm) for ˜2 hrs until the optical density at 600 nm (OD600) was ≧0.1.
(§4) The two compound components of the assay were each diluted in CAMHB and added to the 96-well broth microdilution assay plates. 50 μL of the β-lactam was added to each well of the assay plate in 2-fold dilutions with final concentrations ranging from 128 to 0.13 μg/mL. 25 μL of the BLI compound was added to all wells in the broth microdilution plates at a final concentration of 4 μg/mL. Inoculum cultures were prepared by standardizing the primary cultures to OD600=0.1 and then adding 20 μL of the adjusted primary culture per 1 mL CAMHB for clinical strains or CAMHB (supplemented with tetracycline at 100 μg/mL) for engineered strains, so that the final inoculum density was ˜10^5 colony forming units per milliliter. Diluted inoculum cultures were used to inoculate 25 μL per well in 96-well broth microdilution assay plates.

[2] = tested on: Eco.2781 (KPC-2, TEM+, clinical); assay: as above; assay type: cell-based; conditions: Escherichia coli, read-out: MIC of Ceftolozane, No BLI
Method: as §1, §2, §3, §4

[3] = tested on: Eco.2806 (KPC-2, isogenic); assay: as above; assay type: cell-based; conditions: Escherichia coli, read-out: MIC of Ceftolozane, No BLI
Method: as §1, §2, §3, §4

[4] = tested on: Eco.2840 (KPC-4, isogenic); assay: as above; assay type: cell-based; conditions: Escherichia coli, read-out: MIC of Ceftolozane, No BLI
Method: as §1, §2, §3, §4

[5] = tested on: Kpn.2478 (KPC-3, TEM+, clinical); assay: as above; assay type: cell-based; conditions: Klebsiella pneumoniae, read-out: MIC of Ceftolozane, No BLI
Method: as §1, §2, §3, §4

[6] = tested on: Kpn.2490 (KPC-3, SHV+, TEM+, clinical); assay: as above; assay type: cell-based; conditions: Klebsiella pneumoniae, read-out: MIC of Ceftolozane, No BLI
Method: as §1, §2, §3, §4

[7] = tested on: Kpn.2783 (CTX-M-15, SHV+, TEM+, clinical); assay: as above; assay type: cell-based; conditions: Klebsiella pneumoniae, read-out: MIC of Ceftolozane, No BLI
Method: as §1, §2, §3, §4

[8] = tested on: Kpn.2909 (KPC-3, SHV+, TEM+, clinical); assay: as above; assay type: cell-based; conditions: Klebsiella pneumoniae, read-out: MIC of Ceftolozane, No BLI
Method: as §1, §2, §3, §4

[9] = tested on: Kpn.2913 (KPC-2, SHV+, clinical); assay: as above; assay type: cell-based; conditions: Klebsiella pneumoniae, read-out: MIC of Ceftolozane, No BLI
Method: as §1, §2, §3, §4

[10] = tested on: Kpn.2914 (KPC-2, SHV+, clinical); assay: as above; assay type: cell-based; conditions: Klebsiella pneumoniae, read-out: MIC of Ceftolozane, No BLI
Method: as §1, §2, §3, §4

[11] = tested on: Kpn.2917 (KPC-2, SHV+, clinical); assay: as above; assay type: cell-based; conditions: Klebsiella pneumoniae, read-out: MIC of Ceftolozane, No BLI
Method: as §1, §2, §3, §4

[12] = tested on: Kpn.2918 (KPC-3, SHV+, TEM+, clinical); assay: as above; assay type: cell-based; conditions: Klebsiella pneumoniae, read-out: MIC of Ceftolozane, No BLI
Method: as §1, §2, §3, §4

[13] = tested on: Kpn.2926 (CTX-M-15, OXA-48, clinical); assay: as above; assay type: cell-based; conditions: Klebsiella pneumoniae, read-out: MIC of Ceftolozane, No BLI
Method: as §1, §2, §3, §4

[14] = tested on: Kpn.571 (TEM-26, clinical); assay: as above; assay type: cell-based; conditions: Klebsiella pneumoniae, read-out: MIC of Ceftolozane, No BLI
Method: as §1, §2, §3, §4

[15] = tested on: Pae.2808 (KPC-2, clinical); assay: as above; assay type: cell-based; conditions: Pseudomonas aeruginosa, read-out: MIC of Ceftolozane, No BLI
Method: as §1, §2, §3, §4

[16] = tested on: Pae.2757 (AmpC over-expn, clinical); assay: as above; assay type: cell-based, Pseudomonas aeruginosa; conditions: Pseudomonas aeruginosa, read-out: MIC of Ceftolozane, No BLI
Method: as §1, §2, §3
(§5) The two compound components of the assay were each diluted in CAMHB and added to the 96-well broth microdilution assay plates. 50 μL of the β-lactam was added to each well of the assay plate in 2-fold dilutions with final concentrations ranging from 128 to 0.13 μg/mL. 25 μL of the BLI compound was added to all wells in the broth microdilution plates at a final concentration of 4 μg/mL. Inoculum cultures were prepared by standardizing the primary cultures to OD600=0.1 and then adding 20 μL of the adjusted primary culture per 1 mL CAMHB for clinical strains or CAMHB (supplemented with tetracycline at 100 μg/mL) for engineered strains, so that the final inoculum density was ˜10^5 colony forming units per milliliter. Diluted inoculum cultures were used to inoculate 25 μL per well in 96-well broth microdilution assay plates. The final volume of each well was 100 μL and contained a β-lactam at different concentrations, a BLIcompound at 4 μg/mL concentration, the bacterial culture at an OD600 of approximately 0.001 and when necessary tetracycline at 25 μg/mL.
(§6) Plates were incubated for 18-20 hours at 37° C. with aeration (200 rpm). Following incubation, growth was confirmed visually placing plates over a viewing apparatus (stand with a mirror underneath) and then OD600 was measured using a SpectraMax 340PC384 plate reader (Molecular Devices, Sunnyvale, Calif.). Growth was defined as turbidity that could be detected with the naked eye or achieving minimum OD600 of 0.1. MIC values were defined as the lowest concentration producing no visible turbidity.

[17] = tested on: Pae.2863 (AmpC de-repress, clinical); assay: as above; assay type: cell-based, Pseudomonas aeruginosa; conditions: Pseudomonas aeruginosa, read-out: MIC of Ceftolozane, No BLI
Method: as §1, §2, §3, §5, §6

[18] = tested on: Pae.2885 (AmpC, clinical); assay: as above; assay type: cell-based, Pseudomonas aeruginosa; conditions: Pseudomonas aeruginosa, read-out: MIC of Ceftolozane, No BLI
Method: as §1, §2, §3, §5, §6

[19] = tested on: Cfr.568 (AmpC, clinical); assay: as above; assay type: cell-based, Citrobacter spp; conditions: Citrobacter, read-out: MIC of Ceftolozane, No BLI
Method: as §1, §2
(§7) On the day of testing, primary cultures were started by scraping off 5-10 colonies from the TSAB plates containing clinical strains or the tetracycline supplemented LB plates containing engineered strains. […]
(§8) Plates were incubated for 18-20 hours at 37° C. with aeration (200 rpm). Following incubation, growth was confirmed visually placing plates over a viewing apparatus (stand with a mirror underneath) and then OD600 was measured using a SpectraMax 340PC384 plate reader (Molecular Devices, Sunnyvale, Calif.). Growth was defined as turbidity that could be detected with the naked eye or achieving minimum OD600 of 0.1. […]

[20] = tested on: Ecl.569 (AmpC, clinical); assay: as above; assay type: cell-based, Enterobacter spp; conditions: Enterobacter, read-out: MIC of Ceftolozane, No BLI
Method: as §1, §2, §7, §8

[21] = tested on: Eco.2491 (CMY-2, clinical); assay: as above; assay type: cell-based, Escherichia coli; conditions: Escherichia coli, read-out: MIC of Ceftolozane, No BLI
Method: as §1, §2, §3, §5, §6

[22] = tested on: Eco.2843 (DHA-1, isogenic); assay: as above; assay type: cell-based, Escherichia coli; conditions: Escherichia coli, read-out: MIC of Ceftolozane, No BLI
Method: as §1, §2, §3, §5, §6

[23] = tested on: Eco.2845 (OXA-15, isogenic); assay: as above; assay type: cell-based, Escherichia coli; conditions: Escherichia coli, read-out: MIC of Ceftolozane, No BLI
Method: as §1, §2, §3, §5, §6

[24] = tested on: Eco.2902 (Aba-ADC-33, isogenic); assay: as above; assay type: cell-based; conditions: Escherichia coli, read-out: MIC of Ceftolozane, No BLI
Method: as §1, §2, §7, §8

[25] = tested on: Panel of Isogenic and Clinical Strains Expressing β-Lactamases; assay: Standard BLI Potentiation MIC Assay in Combination with Ceftolozane, whole panel; assay type: cell-based; conditions: panel of 24 strains; no BLI
Method: as §1, §2, §3, §5, §8

For Cn1c(N)c(NC(=O)NCCN)c[n+]1CC1=C(C(=O)O)N2C(=O)[C@@H](NC(=O)/C(=N\OC(C)(C)C(=O)[O-])c3nsc(N)n3)[C@H]2SC1 [Ceftolozane], the MIC [1] was 16 to 32 µg/mL, the MIC [2] was 4 to 8 µg/mL and the MIC [3] was > 64 µg/mL. For the same compound, the MIC [4] was > 64 µg/mL, the MIC [5] was > 64 µg/mL and the MIC [6] was > 64 µg/mL. For the same compound, the MIC [7] was > 64 µg/mL, the MIC [8] was > 64 µg/mL and the MIC [9] was 16 to 32 µg/mL. For the same compound, the MIC [10] was 16 to 32 µg/mL, the MIC [11] was 16 to 32 µg/mL and the MIC [12] was > 64 µg/mL. The MIC [13] was > 64 µg/mL, the MIC [14] was 16 to 32 µg/mL and the MIC [15] was > 64 µg/mL. The MIC [16] was 4 to 8 µg/mL, the MIC [17] was 4 to 8 µg/mL and the MIC [18] was 1 to 2 µg/mL. For the same compound, the MIC [19] was > 64 µg/mL, the MIC [20] was > 64 µg/mL and the MIC [21] was 16 to 32 µg/mL. For the same compound, the MIC [22] was > 64 µg/mL, the MIC [23] was > 64 µg/mL and the MIC [24] was > 64 µg/mL. For the same compound, the MIC50 [25] was > 64 µg/mL and the MIC90 [25] was > 64 µg/mL.
